Values joined by “and” are separate entries in the source; they are usually repeats but may differ in a detail not shown here. Identical values can stand only once.
Test system: GEMS receptors with CBPA11 (BclXL–LD3 and BclXLhigh variants), STAT3-driven SEAP in HEK293T cells
Assay: GEMS SEAP reporter assay, CBPA11 (BclXLhigh, LD3-v and BclXL-v variants) with A-1155463
Assay type: cell-based
Parameters: key to Raw data (SEAP) / SEAP, replicate values / Raw data of Figure 5b / Raw data Figure 5e / Raw data of Independent repeat of CBPA11-v1 vs CBPA11-v1-LD3v3 / Raw data of Independent repeat of CBPA11-v3 vs CBPA11-v3-LD3v3 / Raw data of Figure 5b, CBPA11-v1-LD3v3 (SEAP reporter raw value, single replicate) / Raw data of Figure 5b, CBPA11-v1 (SEAP reporter raw value, single replicate): SEAP activity in U/L in culture supernatant
Conditions: for SEAP (U/L): Figure 4d, representative data and independent repeats 1, 2 (triplicates); for Normalized data (SEAP) / Raw data (SEAP): SuppFigure 9a
Excerpt: To rationally design a CBP responding to a chemical input, we used BclXL as the druglow receptor, LD3 as the designed binder and a designed BclXL variant as the drughigh receptor (referred to as BclXLhigh) to construct a CBP responsive to BclXL inhibitors (Fig. 4a). To design BclXLhigh, we used a multistate design computational protocol described elsewhere[26] […] Thus, BclXLhigh-v(1–3) were chosen as the functional drughigh receptors, resulting in three A-1155463-controlled CBPs (referred to as CBPA11-v(1–3)) (Fig. 4c–e).
HEK293T cells were seeded in a 96-well plate 24 h before transfection. The transfection mix in each well consisted of 3 ng of constitutive human CMV promoter driven mammalian STAT3 expression vector (PhCMV-STAT3-pA), 30 ng of STAT3-induced reporter expression (OStat3-PhCMVmin-SEAP-pA) and 50 ng of expression vectors for each GEMS receptor chain (PSV40-IgK-(drughigh receptor)-EpoRm-IL-6RBm-pA and PSV40-IgK-(druglow receptor-GGGGSX3-LD3)-EpoRm-IL-6RBm-pA). For the specific drughigh receptor and druglow receptor used in the different cellular assays, they are indicated as wild type or with mutations. Then, plasmid DNA was mixed with 50 μl opti-MEM (Thermo Fisher) and 600 ng of polyethyleneimine (Polysciences, catalog no. 24765-1). For drug treatment experiments, drugs were added 12 h post-transfection and incubated with cells for 24 h before the SEAP reporter detection assay.
SEAP activity (U l^−1) in cell culture supernatants was quantified by kinetic measurements at 405 nm (1 minute per measurement for 30 cycles) of absorbance increase due to phosphatase-mediated hydrolysis of para-nitrophenyl phosphate (pNPP).
Binding affinities of SPR drug competition assays were calculated using three-parameter nonlinear regression in GraphPad Prism (v.8.3.0). Representative data of cell assays are presented as individual values and mean values (bars). n = 3 refers to biological replicates. All IC50 or EC50 values of cell assays reported were calculated using four-parameter nonlinear regression ± s.d. Bandpass features of cutoff concentrations and Bandwidth90% were estimated based on the curve fitted using bell-shaped curve nonlinear regression in GraphPad Prism (v.8.3.0). […]
Supplementary Figure 4: Design, screening and validation of BclXLhigh variants. a) Screening of BclXLhigh variants in the GEMS platform. […]
Dissociation constant measurement of BclXLhigh-v(1-3) and LD3. Equilibrium curves are fitted using […]
BclXLhigh-v1 (purple), BclXLhigh-v2 (blue), […]
a) Bcl2high-based bandpass filter designs were developed and to respond to different concentrations of […]
corresponding inhibitor. c) Screening of Bcl2high-based bandpass filter variants in the GEMS platform.
The designed binder LD3 was fused to the druglow-receptor (PSV40-IgK-Bcl2-LD3-EpoRm-IL-6RBm-pA) in one EpoR chain and Bcl2high variants with the insensitive Bcl2 (iBcl2) as control in the other EpoR chain (PSV40-IgK-Bcl2high-EpoRm-IL-6RBm-pA). HEK293T cells were transfected with indicated […]
the mean of six biological replicates ± s.d., overlaid with a scatter dot plot of the original data points.
(1 picture or pasted object on this page, not shown here)
Supplementary Figure 6: Binding affinities and drug resistances of Bcl2high-v(2,4,5) assessed by […]
a) Measurement of dissociation constants for Bcl2high-v(2,4,5) and LD3 interactions. Equilibrium curves […]
Bcl2high-v(2,4,5) measured by SPR. 5 μM of Bcl2 or indicated variants were mixed with 10 μM of […]
Bcl2high-v2 (red), Bcl2high-v4
Supplementary Figure 7: Screening of LD3 variants in CBPA11-v(1-3) and raw data of CBPA11-v(1,3) with LD3-v3 variant. a-c) Screening of LD3 and LD3-v(1-3) variants in complex with BclXL for more sensitive CBPA11-v1 (a), CBPA11-v2 (b), CBPA11-v3 (c) in the GEMS platform. The LD3 variants replaced the role of LD3 (PSV40-IgK-BclXL-LD3-v(1-3)-EpoRm-IL-6RBm-pA) in one EpoR chain and BclXLhigh-v(1-3) in the other EpoR chain (PSV40-IgK-BclXLhigh-V(1-3)-EpoRm-IL-6RBm-pA). HEK293T cells were transfected with […]

[1] = CBPA11-v3-LD3v3, A-1155463 10000 nM

CN(C)CC#Cc1ccc(OCCCc2sc(N3CCc4cccc(C(=O)Nc5nc6ccccc6s5)c4C3)nc2C(=O)O)c(F)c1 [A-1155463]
Normalized data of Figure 5b [1]: 13.381 and 8.285 and 13.0686
Raw data of Figure 5b [1]: 11.3652 and 7.762 and 13.9821
SEAP (U/L) (A-1155463 1 nM): 8.303 U/L and 10.1289 U/L and 7.12 U/L and 9.7586 U/L and 8.864 U/L and 9.857 U/L
SEAP (U/L) (A-1155463 3.16 nM): 6.744 U/L and 8.922 U/L and 8.703 U/L and 12.2331 U/L and 8.658 U/L and 8.903 U/L
Normalized data (SEAP) (BclXL-v1, A-1155463 1 nM): 9.876
Raw data (SEAP) (BclXL-v1, A-1155463 1 nM): 9.508
Normalized data (SEAP) (BclXL-v1, A-1155463 3.16 nM): 8.253
Raw data (SEAP) (BclXL-v1, A-1155463 3.16 nM): 7.946
Normalized data (SEAP) (BclXL-v1, A-1155463 100 nM): 78.5603
Raw data (SEAP) (BclXL-v1, A-1155463 100 nM): 75.6338
Normalized data (SEAP) (BclXL-v1, A-1155463 316 nM): 100
Raw data (SEAP) (BclXL-v1, A-1155463 316 nM): 96.2749
Normalized data (SEAP) (BclXL-v1, A-1155463 1000 nM): 71.1878
Raw data (SEAP) (BclXL-v1, A-1155463 1000 nM): 68.536
Normalized data (SEAP) (BclXL-v1, A-1155463 3160 nM): 30.3077
Raw data (SEAP) (BclXL-v1, A-1155463 3160 nM): 29.1787
Normalized data (SEAP) (BclXL-v1, A-1155463 10000 nM): 12.5367
Raw data (SEAP) (BclXL-v1, A-1155463 10000 nM): 12.0697
Normalized data (SEAP) (BclXL-v2, A-1155463 1 nM): 3.201
Raw data (SEAP) (BclXL-v2, A-1155463 1 nM): 9.801
Normalized data (SEAP) (BclXL-v2, A-1155463 3.16 nM): 2.258
Raw data (SEAP) (BclXL-v2, A-1155463 3.16 nM): 6.914
Normalized data (SEAP) (BclXL-v2, A-1155463 100 nM): 100
Raw data (SEAP) (BclXL-v2, A-1155463 100 nM): 306.188
Normalized data (SEAP) (BclXL-v2, A-1155463 316 nM): 84.9937
Raw data (SEAP) (BclXL-v2, A-1155463 316 nM): 260.24
Normalized data (SEAP) (BclXL-v2, A-1155463 1000 nM): 53.3071
Raw data (SEAP) (BclXL-v2, A-1155463 1000 nM): 163.22
Normalized data (SEAP) (BclXL-v2, A-1155463 3160 nM): 38.1484
Raw data (SEAP) (BclXL-v2, A-1155463 3160 nM): 116.806
Normalized data (SEAP) (BclXL-v2, A-1155463 10000 nM): 23.1544
Raw data (SEAP) (BclXL-v2, A-1155463 10000 nM): 70.8961
Normalized data (SEAP) (BclXL-v3, A-1155463 1 nM): 38.0177
Raw data (SEAP) (BclXL-v3, A-1155463 1 nM): 3.662
Normalized data (SEAP) (BclXL-v3, A-1155463 3.16 nM): 36.4228
Raw data (SEAP) (BclXL-v3, A-1155463 3.16 nM): 3.509
Normalized data (SEAP) (BclXL-v3, A-1155463 100 nM): 68.011
Raw data (SEAP) (BclXL-v3, A-1155463 100 nM): 6.552
Normalized data (SEAP) (BclXL-v3, A-1155463 316 nM): 43.5621
Raw data (SEAP) (BclXL-v3, A-1155463 316 nM): 4.196
Normalized data (SEAP) (BclXL-v3, A-1155463 1000 nM): 47.9459
Raw data (SEAP) (BclXL-v3, A-1155463 1000 nM): 4.619
Normalized data (SEAP) (BclXL-v3, A-1155463 3160 nM): 98.7391
Raw data (SEAP) (BclXL-v3, A-1155463 3160 nM): 9.512
Normalized data (SEAP) (BclXL-v3, A-1155463 10000 nM): 92.8941
Raw data (SEAP) (BclXL-v3, A-1155463 10000 nM): 8.949
Normalized data (SEAP) (BclXL, A-1155463 1 nM): 5.357
Raw data (SEAP) (BclXL, A-1155463 1 nM): 23.0325
